For series [1], the species on record is Homo sapiens.
Series [2] is filed under the species Homo sapiens. The source holds these as a separate data set.
The test system of series [3] is Nc1nc(O)c2ncn([C@H]3C[C@H](O)[C@@H](CO)O3)c2n1. The following applies: Homo sapiens.
Series [4] has the same test system. The following applies: Homo sapiens. This is another data set of the same source.

Deoxycytidine kinase (Homo sapiens), P27707, sequence (P27707 whole entry): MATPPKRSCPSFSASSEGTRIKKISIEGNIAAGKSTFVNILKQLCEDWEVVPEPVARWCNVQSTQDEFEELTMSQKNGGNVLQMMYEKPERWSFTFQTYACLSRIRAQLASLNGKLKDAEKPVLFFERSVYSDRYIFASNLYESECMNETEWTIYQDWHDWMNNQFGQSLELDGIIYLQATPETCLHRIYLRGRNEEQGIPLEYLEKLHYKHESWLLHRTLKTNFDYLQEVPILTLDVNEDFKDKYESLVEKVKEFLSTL

For orientation: Km means the concentration of substrate that gives half-maximal velocity. In general, kcat refers to the maximal rate divided by the concentration of active sites. Turning to `Nc1nc(O)c2ncn([C@H]3C[C@H](O)[C@@H](CO)O3)c2n1`, the Michaelis-Menten constant (Km) in the series listed under Homo sapiens [1] is 700 µM; in the series listed under Homo sapiens [2], 10.4 µM. In addition, the kcat stood at 3.6 s⁻¹ in the series filed under Homo sapiens [1] and 0.43 s⁻¹ in the series listed under Homo sapiens [2].

As for “Deoxycytidine kinase (Homo sapiens), P27707”, in series [3], the Km is 41 µM and the kcat amounted to 0.53 s⁻¹. Further, in series [4], the Km was determined as 181 µM.

The values above are taken from ChEMBL document CHEMBL1155044, “Elucidation of different binding modes of purine nucleosides to human deoxycytidine kinase” (J Med Chem, 2008).
